{"source": "patent US20210395327A1", "about": "“Growth Hormone-Releasing Hormone Antagonists and Uses Thereof” (United States Government As Represented By The Department …, priority 2019, published 2021)", "key": {"[1]": {"system": "lung cancer HCC827 xenograft", "assay": "Xenograft tumor growth in nude mice, HCC827", "assay_type": "in vivo", "conditions": "for % Inhibition: vs control", "experimental": "The peptides' activity was compared with GHRH antagonist MIA-602. All statistical analyzses were performed from comparing GHRA antagonists to non-treated tumor (control).\nPeptides and chemicals. GHRH antagonists MIA-602 and AVR-GHRH antagonists (see Table 2 above) were synthesized by solid phase methods and purified by HPLC. The peptides were dissolved in DMSO and further diluted in 10% 1,2-propanediol. The final concentration of peptides was 50 µg/ml in 10% 1,2-propanediol containing 0.1% of DMSO.\nCell culture. Human cancer cell lines including pancreatic (PANC-1 and CFPAC-1), lung (HCC827 and H460), stomach (NCI-N87), prostate (PC3), brest (MX-1 and HCC-1806), colorectal (HT-29), and ovarian (SK-OV-3 and OVCAR-3) were obtained from the American Type Culture Collection (ATCC) and cultured at 37° C. in a humidified 95% air/5% CO2 atmosphere in the medium recommended by ATCC.\nXenograft models of human cancers in nude mice. Female athymic (NCr nu/nu) nude mice, 5- to 6-weeks-old, obtained from the Envigo labs (Tampa, Fla.), were housed in laminar airflow cabinets under pathogen-free conditions with a 12-h light/12-h dark schedule, and were fed autoclaved standard chow and water. To generate mice with xenografted tumors, tumor xenografts were initiated by subcutaneous (s.c.) injection of 107 human cancer cells into female nude mice. After about 4 weeks the resulting tumors were dissected and collected after removing necrosis tissues. The tumors were then cut into particles with size of 3 mm3 and transplanted s.c. by trocar needle into experimental animals. When tumors grew to the size of 50-60 mm3 (by volume), mice were randomized into groups and treated daily for 4-8 weeks by subcutaneous administration of 5 μg of GHRH antagonists MIA-602 or AVR-compounds (2-10 μg as indicated), or vehicle solutions (0.1% DMSO in 10% 1,2-propanediol) respectively. Tumor sizes were measured weekly.\nStatistical analysis. One-way ANOVA followed by Bonferroni comparison were performed. Data are expressed as Mean±SEM. To determine statistical significance between animal groups, two-tailed Student's t-test was conducted. Differences were considered significant when p<0.05.\nResults. […] FIG. 1A-N represents in vivo inhibition of tumor growth during the treatment with GHRH antagonist MIA-602 and selected AVR antagonists in nude mice xenografted with various human tumors including pancreatic cancer PANC-1 (FIG. 1A) and CFPAC-1 (FIG. 1I); lung cancer HCC827 (FIGS. 1B, C) and H460 (FIG. 1H); stomach cancer N87 (FIGS. 1D-F); colon cancer HT-29 (FIG. 1G); breast cancer MX-1 and HCC-1806 (FIGS. 1J, K); ovarian cancer SK-OV-3 and OVACAR-3 (FIGS. 1 L, M) and prostate cancer PC3 (FIG. 1N). See also Table 5."}, "[2]": {"system": "GH release from rat pituitary cells", "assay": "Inhibition of GH release from rat pituitary cells in vitro (GH ELISA)", "assay_type": "cell-based", "conditions": "for Relative GH release: analogs 20 nM, then with 1 nM GHRH(1-29)NH2 for 30 minutes, Control = 1.00", "experimental": "In vitro assessment of the antagonistic activity of GHRH analogs. Rats were decapitated and pituitaries were collected in pre-warmed HBSS (Hanks' Balanced Salt Solution). Tissue was then cut into small pieces and digested in HBSS medium containing 3% BSA, 50 μg/ml gentamycin and 0.5% collagenase for 50 minutes at 37° C. Cells were further dispersed by pipetting and passed through a 100 μm cell strainer with the addition of DMEM containing 50 μg/ml gentamycin. 10% horse serum and 2.5% FBS (growth medium). Cells were harvested at 475×g for 2 minutes, resuspended in fresh growth medium and seeded onto poly-D-lysine-coated 24-well plates (7 pituitaries/plate). Cells were left to recover for 4 days. Growth medium was then replaced with serum-free DMEM for 4 hours and GHRH analogs (at concentration of 20 nM) were added in DMEM containing 0.1% BSA for 30 minutes. Cells were replenished with medium containing the same concentration of the analogs and 1 nM GHRH(1-29)NH2 for 30 minutes. Medium from this step was collected, centrifuged at 800 g for 3 minutes and GH concentration was determined by ELISA (ALPCO Diagnostics, Mill Valley, Calif.) according to the manufacturer's instruction."}, "[3]": {"system": "CFPAC-1 pancreatic cancer cells", "assay": "In vitro cell viability, CFPAC-1", "assay_type": "cell-based, human", "conditions": "for In vitro relative inhibitory potency in comparison to MIA-602, CFPAC-1: Table 3B, 5 μM for 72 H, MIA-602 = 1", "how_it_was_run": "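Viability by CellTiter 96 aqueous one solution (MTS) after 72 h exposure to antagonist at 5 μM (some at 2 μM), following 24 h starvation in 0.5% FBS. Results given as percentage inhibition relative to MIA602.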"}, "[4]": {"conditions": "Table 4B, Lung Ca HCC827, 7 weeks, 5 μg/day s.c."}, "[5]": {"conditions": "Table 4C, Lung Ca HCC827, 8 weeks, 2.5 μg/day s.c."}, "[6]": {"conditions": "Table 4C, Lung Ca HCC827, 8 weeks, 5 μg/day s.c."}, "[7]": {"conditions": "Table 4C, Lung Ca HCC827, 8 weeks, 10 μg/day s.c."}}, "note": "Non-standard residues stand in square brackets, D forms with d. Residues, ends and D or L forms follow the SMILES beside them. *: point of attachment. Phenylacetyl(2,3,4,5,6-F5) = O=C(Cc1c(F)c(F)c(F)c(F)c1F)*; Phe(F5) = N[C@@H](Cc1c(F)c(F)c(F)c(F)c1F)C(=O)O; Phe(4-Cl) = N[C@@H](Cc1ccc(Cl)cc1)C(=O)O; hArg = N=C(N)NCCCC[C@H](N)C(=O)O; 12Ado = NCCCCCCCCCCCC(=O)O; Nle = CCCC[C@H](N)C(=O)O; Orn = NCCC[C@H](N)C(=O)O; Abu = CC[C@H](N)C(=O)O; PhAc = O=C(Cc1ccccc1)*"}
{"smiles": "CCCC[C@H](NC(=O)[C@@H](NC(=O)[C@H](CC(=O)O)NC(=O)[C@H](CCC(N)=O)NC(=O)[C@H](CC(C)C)NC(=O)[C@H](CC(C)C)NC(=O)[C@H](CCCN)NC(=O)[C@H](Cc1c[nH]cn1)NC(=O)[C@H](C)NC(=O)[C@H](CO)NC(=O)[C@H](CC(C)C)NC(=O)[C@H](CCC(N)=O)NC(=O)[C@H](CC)NC(=O)[C@H](CC(C)C)NC(=O)[C@@H](NC(=O)[C@H](CCCN)NC(=O)[C@H](Cc1c[nH]cn1)NC(=O)[C@H](Cc1c(F)c(F)c(F)c(F)c1F)NC(=O)[C@H](CCCCNC(=N)N)NC(=O)[C@H](C)NC(=O)[C@@H](NC(=O)[C@H](Cc1ccc(Cl)cc1)NC(=O)[C@@H](NC(=O)[C@H](C)NC(=O)[C@H](CC(=O)O)NC(=O)[C@@H](CCCNC(=N)N)NC(=O)[C@H](Cc1ccc(O)cc1)NC(=O)CCCCCCCCCCCNC(=O)Cc1c(F)c(F)c(F)c(F)c1F)[C@@H](C)CC)[C@@H](C)O)C(C)C)[C@@H](C)CC)C(=O)N[C@H](CCCNC(=N)N)C(=O)N[C@@H](CCCCNC(=N)N)C(=O)NCCCCCCCCCCCC(=O)NC", "note": "[AVR-543, 5FPhAC-Ada-Tyr-DArg-Asp-Ala-Ile-Cpa-Thr-Ala-Har-5FPhe-His-Orn-Val-Leu-Abu-Gln-Leu-Ser-Ala-His-Orn-Leu-Leu-Gln-Asp-Ile-Nle-DArg-Har-Ada-NHCH3] ({Phenylacetyl(2,3,4,5,6-F5)-12Ado}-Y[dR]DAI[Phe(4-Cl)]TA[hArg][Phe(F5)]H[Orn]VL[Abu]QLSAH[Orn]LLQDI[Nle][dR][hArg][12Ado]-NHMe)", "values": [{"measurement": "Tumor Growth %", "setting": "[1]; [4]", "value": 806.0, "unit": "%"}, {"measurement": "% Inhibition", "setting": "[1]; [4]", "value": 38.6, "unit": "%"}, {"measurement": "Relative GH release", "setting": "[2]", "value": "1.10 ± 0.01"}, {"measurement": "In vitro relative inhibitory potency in comparison to MIA-602, CFPAC-1", "setting": "[3]", "value": 2.05}]}
{"smiles": "CCCC[C@H](NC(=O)[C@@H](NC(=O)[C@H](CC(=O)O)NC(=O)[C@H](CCC(N)=O)NC(=O)[C@H](CC(C)C)NC(=O)[C@H](CC(C)C)NC(=O)[C@H](CCCCN)NC(=O)[C@H](CCCNC(=N)N)NC(=O)[C@H](C)NC(=O)[C@H](CO)NC(=O)[C@H](CC(C)C)NC(=O)[C@H](CCC(N)=O)NC(=O)[C@H](CC)NC(=O)[C@H](CC(C)C)NC(=O)[C@@H](NC(=O)[C@H](CCCCN)NC(=O)[C@H](CCCNC(=N)N)NC(=O)[C@H](Cc1c(F)c(F)c(F)c(F)c1F)NC(=O)[C@H](CCCCNC(=N)N)NC(=O)[C@H](C)NC(=O)[C@@H](NC(=O)[C@H](Cc1ccc(Cl)cc1)NC(=O)[C@@H](NC(=O)[C@H](C)NC(=O)[C@H](CC(=O)O)NC(=O)[C@@H](CCCNC(=N)N)NC(=O)[C@H](Cc1ccc(O)cc1)NC(=O)CCCCCCCCCCCNC(=O)Cc1c(F)c(F)c(F)c(F)c1F)[C@@H](C)CC)[C@@H](C)O)C(C)C)[C@@H](C)CC)C(=O)N[C@H](CCCNC(=N)N)C(=O)N[C@@H](CCCCNC(=N)N)C(=O)NCCCCCCCCCCCC(N)=O", "note": "[AVR-353, 5FPhAC-Ada-Tyr-DArg-Asp-Ala-Ile-Cpa-Thr-Ala-Har-5FPhe-Arg-Lys-Val-Leu-Abu-Gln-Leu-Ser-Ala-Arg-Lys-Leu-Leu-Gln-Asp-Ile-Nle-DArg-Har-Ada-NH2] ({Phenylacetyl(2,3,4,5,6-F5)-12Ado}-Y[dR]DAI[Phe(4-Cl)]TA[hArg][Phe(F5)]RKVL[Abu]QLSARKLLQDI[Nle][dR][hArg][12Ado]-NH2)", "values": [{"measurement": "Tumor Growth %", "setting": "[1]; [4]", "value": 380.3, "unit": "%"}, {"measurement": "% Inhibition", "setting": "[1]; [4]", "value": 71.0, "unit": "%"}, {"measurement": "Tumor Growth %", "setting": "[1]; [5]", "value": 545.65, "unit": "%"}, {"measurement": "% Inhibition", "setting": "[1]; [5]", "value": 35.1, "unit": "%"}, {"measurement": "Tumor Growth %", "setting": "[1]; [6]", "value": 420.79, "unit": "%"}, {"measurement": "% Inhibition", "setting": "[1]; [6]", "value": 50.0, "unit": "%"}, {"measurement": "Tumor Growth %", "setting": "[1]; [7]", "value": 359.16, "unit": "%"}, {"measurement": "% Inhibition", "setting": "[1]; [7]", "value": 57.3, "unit": "%"}, {"measurement": "Relative GH release", "setting": "[2]", "value": "0.65 ± 0.08"}, {"measurement": "inhibitory effects on the release of GH, compared with MIA-602 (in words)", "setting": "[2]; rat pituitary cells in vitro, 20 nM", "value": "higher inhibitory effects than MIA-602"}, {"measurement": "In vitro relative inhibitory potency in comparison to MIA-602, CFPAC-1", "setting": "[3]", "value": 2.922}]}
{"smiles": "CCCC[C@H](NC(=O)[C@@H](NC(=O)[C@H](CC(=O)O)NC(=O)[C@H](CCC(N)=O)NC(=O)[C@H](CC(C)C)NC(=O)[C@H](CC(C)C)NC(=O)[C@H](CCCN)NC(=O)[C@H](Cc1c[nH]cn1)NC(=O)[C@H](C)NC(=O)[C@H](CO)NC(=O)[C@H](CC(C)C)NC(=O)[C@H](CCC(N)=O)NC(=O)[C@H](CC)NC(=O)[C@H](CC(C)C)NC(=O)[C@@H](NC(=O)[C@H](CCCN)NC(=O)[C@H](Cc1c[nH]cn1)NC(=O)[C@H](Cc1ccc(OC)cc1)NC(=O)[C@H](CCCCNC(=N)N)NC(=O)[C@H](C)NC(=O)[C@@H](NC(=O)[C@H](Cc1c(F)c(F)c(F)c(F)c1F)NC(=O)[C@@H](NC(=O)[C@H](C)NC(=O)[C@H](CC(=O)O)NC(=O)[C@@H](CCCNC(=N)N)NC(=O)[C@H](Cc1ccc(O)cc1)NC(=O)CCCCCCCCCCCNC(=O)Cc1ccccc1)[C@@H](C)CC)[C@@H](C)O)C(C)C)[C@@H](C)CC)C(=O)N[C@H](CCCNC(=N)N)C(=O)N[C@@H](CCCCNC(=N)N)C(N)=O", "note": "[MIA-602, PhAC-Ada, Tyr D-Arg, Asp, Ala, Ile, 5FPhe, Thr, Ala, Har, Tyr(Me), His, Orn, Val, Leu, Abu, Gin, Leu, Ser, Ala, His, Om, Leu, Leu, Gin, Asp, Ile; Nle, D-Arg, Har NH2, reference compound] ({PhAc-12Ado}-Y[dR]DAI[Phe(F5)]TA[hArg]Y(Me)H[Orn]VL[Abu]QLSAH[Orn]LLQDI[Nle][dR][hArg]-NH2)", "values": [{"measurement": "Tumor Growth %", "setting": "[1]; [4]", "value": 662.2, "unit": "%"}, {"measurement": "% Inhibition", "setting": "[1]; [4]", "value": 49.5, "unit": "%"}, {"measurement": "Relative GH release", "setting": "[2]", "value": "0.78 ± 0.01"}, {"measurement": "In vitro relative inhibitory potency in comparison to MIA-602, CFPAC-1", "setting": "[3]", "value": 1}, {"measurement": "relative inhibitory potency in comparison to MIA-602, Pancreatic CFPAC-1", "setting": "[3]; antagonist 5 μM for 72 h, cell proliferation assay, MIA602 = 1", "value": 1}]}
